Measurements reported in US9376462B2, “Process for preparing delta-7,9(11) steroids from Ganoderma lucidum and analogs thereof” (Indiana University Research and Technology Corporation, priority 2010, dated 2016).
Like-named read-outs stand apart in the source and are kept apart here.

How the values were obtained:
[1] = biological target: recombinant HIV-1 protease (Human immunodeficiency virus type 1 group M subtype B, UniProt P04585); details: cited from earlier work
[2] = tested on: HIV-1; details: MT-4 cells; cited from earlier work
[3] = tested on: mammalian cells; details: potentially through inhibition of lanosterol 14α demethylase; cited from earlier work
[4] = tested on: MDA-MB-231 cells; test: Cell proliferation assay (tetrazolium salt/MTT method), MDA-MB-231; format: cell-based; details: Homo sapiens, read-out: IC50, inhibition of cell proliferation
Procedure: (§1) Cell culture: The human breast cancer cell lines MCF-7 and MDA-MB-231, obtained from ATCC (Manassas, Va.), were cultivated in Dulbecco's modified Eagle's medium (DMEM) containing penicillin (50 U/ml), streptomycin (50 U/ml), and 10% fetal bovine serum (FBS). Media and supplements were from Invitrogen (Grand Island, N.Y.).
(§2) Cell proliferation assay: Ganodermanontriol, 13, 14, and 15 (isomers) were dissolved in DMSO (Sigma; St. Louis, Mo.) at a concentration of 10 mM and stored at 4° C. Dulbecco's phosphate buffered saline (DPBS) was purchased from Cambrex Bio Science Walkersville, Inc. (Walkersville, Md.). Cell proliferation was determined by the tetrazolium salt method (MTT method), according to the manufacturer's instructions (Promega, Madison, Wis.). Briefly, MCF-7 and MDA-MB-231 cells (2.5×10^3/well) were cultured in a 96-well plate and treated with ganodermanontriol, 13, 14 and 15 (0-100 μg/ml) for 24, 48, and 72 hrs. At the end of the incubation period, the cells were harvested and absorption was determined with an ELISA plate reader at 570 nm. Data points represent mean±SD in triplicate determinations repeated at least twice. IC50 values were determined by using SigmaPlot (Systat Software Inc, San Jose, Calif.).

[5] = tested on: MCF-7 cells; test: Cell proliferation assay (tetrazolium salt/MTT method), MCF-7; format: cell-based; details: Homo sapiens, read-out: IC50, inhibition of cell proliferation
Procedure: as §1, §2

[6] = tested on: classical pathway (CP) of the complement system; details: read-out: IC(50), anticomplement activity; cited from earlier work
[7] = tested on: xenograft model of colon cancer; details: cited from earlier work
[8] = tested on: human colon cancer cells; details: in vitro; cited from earlier work
[9] = MDA-MB-231 cells, 72 h, 0-100 μM

| Compound | inhibitory activity against recombinant HIV-1 protease [1] | IC50 [4, 9] | IC50 ([5]; MCF7 cells, 72 h, 0-100 μM) | further results |
| --- | --- | --- | --- | --- |
| ganodermanodiol | significant inhibitory activity |  |  |  |
| C[C@H](CCC=C(CO)CO)[C@H]1CC[C@@]2(C)C3=CC[C@H]4C(C)(C)C(=O)CC[C@]4(C)C3=CC[C@]12C [ganoderiol F, reference compound] |  |  |  | inhibition of HIV-1-induced cytopathic effect [2]: inhibited |
| C/C(=C\CC[C@@H](C)[C@H]1CC[C@@]2(C)C3=CCC4C(C)(C)C(=O)CC[C@]4(C)C3=CC[C@]12C)CO (stereo partly drawn) [ganoderol A, (10S,13R,14R,17R)-17-((R,E)-7-Hydroxy-6-methylhept-5-en-2-yl)-4,4,10,13,14-pentamethyl-4,5,6,10,12,13,14,15,16,17-decahydro-1H-cyclopenta[a]phenanthren-3(2H)-one] |  |  |  | melting point: 75 to 80 °C; hypocholestemic activity [3]: significant hypocholestemic activity |
| C[C@H](CC[C@H](O)[C@@](C)(O)CO)[C@H]1CC[C@@]2(C)C3=CCC4C(C)(C)C(=O)CC[C@]4(C)C3=CC[C@]12C (stereo partly drawn) [compound 14, (10S,13R,14R,17R)-4,4,10,13,14-Pentamethyl-17-((2R,5S,6S)-5,6,7-trihydroxy-6-methylheptan-2-yl)-4,5,6,10,12,13,14,15,16,17-decahydro-1H-cyclopenta[a]phenanthren-3(2H)-one] |  | 36.7 µM | 16.3 µM |  |
| C[C@H](CC[C@@H](O)[C@](C)(O)CO)[C@H]1CC[C@@]2(C)C3=CCC4C(C)(C)C(=O)CC[C@]4(C)C3=CC[C@]12C (stereo partly drawn) [compound 15, (10S,13R,14R,17R)-4,4,10,13,14-Pentamethyl-17-((2R,5R,6R)-5,6,7-trihydroxy-6-methylheptan-2-yl)-4,5,6,10,12,13,14,15,16,17-decahydro-1H-cyclopenta[a]phenanthren-3(2H)-one] |  | 11.3 µM | 24.1 µM |  |
| C/C(=C\CC[C@@H](C)[C@H]1CC(=O)[C@@]2(C)C3=C(C(=O)C[C@]12C)[C@@]1(C)CC[C@H](O)C(C)(C)[C@@H]1C[C@@H]3O)C(=O)O [ganoderic acid β] | significant inhibitory activity |  |  |  |
| C[C@H](CC[C@H](O)[C@](C)(O)CO)[C@H]1CC[C@@]2(C)C3=CCC4C(C)(C)C(=O)CC[C@]4(C)C3=CC[C@]12C (stereo partly drawn) [compound 1, (10S,13R,14R,17R)-4,4,10,13,14-Pentamethyl-17-((2R,5S,6R)-5,6,7-trihydroxy-6-methylheptan-2-yl)-4,5,6,10,12,13,14,15,16,17-decahydro-1H-cyclopenta[a]phenanthren-3(2H)-one] | significant inhibitory activity |  |  | IC50 [6]: 17.2 µM; inhibition of HIV-1-induced cytopathic effect [2]: inhibited; IC50 ([4]; MDA-MB-231, 72 h): 9.7 µM; tumor growth [7]: inhibited tumor growth; IC50 ([5]; MCF7, 72 h): 5.8 µM; proliferation of human colon cancer cells [8]: suppressed proliferation |
| C[C@H](CC[C@@H](O)[C@@](C)(O)CO)[C@H]1CC[C@@]2(C)C3=CCC4C(C)(C)C(=O)CC[C@]4(C)C3=CC[C@]12C (stereo partly drawn) [compound 13, (10S,13R,14R,17R)-4,4,10,13,14-Pentamethyl-17-((2R,5R,6S)-5,6,7-trihydroxy-6-methylheptan-2-yl)-4,5,6,10,12,13,14,15,16,17-decahydro-1H-cyclopenta[a]phenanthren-3(2H)-one] |  | 33.8 µM | 24.1 µM |  |
